In ChEMBL document CHEMBL1135287, “Anisylazoformylarginine: a superior assay substrate for carboxypeptidase B type enzymes” (Bioorg Med Chem Lett, 2002):

Tests used:
[1] = organism: Sus scrofa; experiment: Kinetic constant in the presence of porcine carboxypeptidase B
[2] = organism: Sus scrofa; experiment: Specificity constant kcat/Km was obtained at pH of 7.9, 25 degree C by the porcine carboxypeptidase B

Km [1]: 44 µM
k cat [1]: 44 s⁻¹
k cat/Km [2]: 1e+06 M⁻¹ s⁻¹
Compound: COc1ccc(/N=N/C(=O)N[C@@H](CCCN=C(N)N)C(=O)O)cc1
